Numbers after ± are expanded uncertainties.
Assay: molar heat capacity at constant pressure; mn = molality of the nth substance listed, in mol/kg
Settings: 101 kPa, Liquid, DSC

CCCCCOCCOCCOCCO [ethanol, 2-[2-[2-(pentyloxy)ethoxy]ethoxy]-] + O
molar heat capacity at constant pressure [J/K/mol]
Settings | 278.15 K | 283.15 K | 288.15 K | 293.15 K | 298.15 K | 308.15 K | 318.15 K | 328.15 K | 333.15 K
m1 = 0.0166 | 75.93 ± 2.9 | 75.77 ± 2.9 | 75.66 ± 2.9 | 75.59 ± 2.9 | 75.56 ± 2.9 | 75.53 ± 2.9 | 75.56 ± 2.9 | 75.61 ± 2.9 | 75.66 ± 2.9
m1 = 0.0321 | 76.16 ± 3 | 76 ± 2.9 | 75.9 ± 2.9 | 75.83 ± 2.9 | 75.8 ± 2.9 | 75.78 ± 2.9 | 75.79 ± 2.9 | 75.85 ± 2.9 | 75.9 ± 2.9
m1 = 0.0392 | 76.27 ± 3 | 76.11 ± 2.9 | 76 ± 2.9 | 75.94 ± 2.9 | 75.91 ± 2.9 | 75.89 ± 2.9 | 75.9 ± 2.9 | 75.96 ± 2.9 | 76 ± 2.9
m1 = 0.06 | 76.59 ± 3 | 76.43 ± 3 | 76.32 ± 3 | 76.26 ± 3 | 76.22 ± 3 | 76.2 ± 3 | 76.21 ± 3 | 76.27 ± 3 | 76.32 ± 3
m1 = 0.0876 | 77.01 ± 3 | 76.85 ± 3 | 76.74 ± 3 | 76.68 ± 3 | 76.64 ± 3 | 76.62 ± 3 | 76.63 ± 3 | 76.68 ± 3 | 76.74 ± 3
m1 = 0.1214 | 77.52 ± 3 | 77.36 ± 3 | 77.26 ± 3 | 77.2 ± 3 | 77.15 ± 3 | 77.13 ± 3 | 77.14 ± 3 | 77.2 ± 3 | 77.24 ± 3
m1 = 0.1388 | 77.79 ± 3 | 77.63 ± 3 | 77.53 ± 3 | 77.47 ± 3 | 77.42 ± 3 | 77.4 ± 3 | 77.41 ± 3 | 77.47 ± 3 | 77.51 ± 3
m1 = 0.1661 | 78.19 ± 3 | 78.05 ± 3 | 77.95 ± 3 | 77.9 ± 3 | 77.85 ± 3 | 77.81 ± 3 | 77.85 ± 3 | 77.89 ± 3 | 77.91 ± 3
m1 = 0.1861 | 78.49 ± 3 | 78.35 ± 3 | 78.26 ± 3 | 78.21 ± 3 | 78.16 ± 3 | 78.12 ± 3 | 78.21 ± 3 | 78.2 ± 3 | 78.21 ± 3
m1 = 0.2119 | 78.88 ± 3.1 | 78.75 ± 3.1 | 78.66 ± 3 | 78.62 ± 3 | 78.57 ± 3 | 78.55 ± 3 | 78.65 ± 3 | 78.59 ± 3 | 78.59 ± 3
m1 = 0.2272 | 79.1 ± 3.1 | 78.99 ± 3.1 | 78.91 ± 3.1 | 78.86 ± 3.1 | 78.81 ± 3.1 | 78.84 ± 3.1 | 78.89 ± 3.1 | 78.81 ± 3.1 | 78.78 ± 3.1
m1 = 0.2499 | 79.44 ± 3.1 | 79.34 ± 3.1 | 79.27 ± 3.1 | 79.22 ± 3.1 | 79.18 ± 3.1 | 79.27 ± 3.1 | 79.21 ± 3.1 | 79.1 ± 3.1 | 79.08 ± 3.1
m1 = 0.2726 | 79.77 ± 3.1 | 79.7 ± 3.1 | 79.64 ± 3.1 | 79.59 ± 3.1 | 79.56 ± 3.1 | 79.68 ± 3.1 | 79.49 ± 3.1 | 79.36 ± 3.1 | 79.36 ± 3.1
m1 = 0.2949 | 80.1 ± 3.1 | 80.06 ± 3.1 | 80.02 ± 3.1 | 79.97 ± 3.1 | 79.97 ± 3.1 | 80.07 ± 3.1 | 79.75 ± 3.1 | 79.59 ± 3.1 | 79.62 ± 3.1
m1 = 0.314 | 80.39 ± 3.1 | 80.37 ± 3.1 | 80.34 ± 3.1 | 80.32 ± 3.1 | 80.49 ± 3.1 | 80.32 ± 3.1 | 79.96 ± 3.1 | 79.8 ± 3.1 | 79.84 ± 3.1
m1 = 0.3353 | 80.72 ± 3.1 | 80.73 ± 3.1 | 80.72 ± 3.1 | 80.85 ± 3.1 | 80.89 ± 3.1 | 80.6 ± 3.1 | 80.22 ± 3.1 | 80.05 ± 3.1 | 80.1 ± 3.1
m1 = 0.3562 | 81.05 ± 3.1 | 81.08 ± 3.1 | 81.12 ± 3.1 | 81.34 ± 3.2 | 81.24 ± 3.1 | 80.83 ± 3.1 | 80.45 ± 3.1 | 80.3 ± 3.1 | –
m1 = 0.3851 | 81.51 ± 3.2 | 81.58 ± 3.2 | 81.77 ± 3.2 | 81.87 ± 3.2 | 81.68 ± 3.2 | 81.19 ± 3.1 | 80.78 ± 3.1 | 80.63 ± 3.1 | –
m1 = 0.4069 | 81.92 ± 3.2 | 82.17 ± 3.2 | 82.36 ± 3.2 | 82.27 ± 3.2 | 81.99 ± 3.2 | 81.4 ± 3.2 | 81.01 ± 3.1 | 80.87 ± 3.1 | –
m1 = 0.426 | 82.31 ± 3.2 | 82.58 ± 3.2 | 82.73 ± 3.2 | 82.55 ± 3.2 | 82.25 ± 3.2 | 81.62 ± 3.2 | 81.22 ± 3.1 | 81.05 ± 3.1 | –
m1 = 0.4405 | 82.64 ± 3.2 | 82.93 ± 3.2 | 82.99 ± 3.2 | 82.77 ± 3.2 | 82.43 ± 3.2 | 81.77 ± 3.2 | 81.37 ± 3.2 | 81.17 ± 3.1 | –
m1 = 0.4693 | 83.38 ± 3.2 | 83.6 ± 3.2 | 83.45 ± 3.2 | 83.15 ± 3.2 | 82.79 ± 3.2 | 82.05 ± 3.2 | 81.69 ± 3.2 | 81.49 ± 3.2 | –
m1 = 0.4858 | 83.82 ± 3.2 | 83.98 ± 3.3 | 83.71 ± 3.2 | 83.35 ± 3.2 | 82.97 ± 3.2 | 82.23 ± 3.2 | 81.84 ± 3.2 | 81.65 ± 3.2 | –
m1 = 0.5111 | 84.48 ± 3.3 | 84.45 ± 3.3 | 84.09 ± 3.3 | 83.67 ± 3.2 | 83.27 ± 3.2 | 82.5 ± 3.2 | 82.12 ± 3.2 | 81.93 ± 3.2 | –
m1 = 0.5381 | 85.09 ± 3.3 | 84.88 ± 3.3 | 84.46 ± 3.3 | 84 ± 3.3 | 83.58 ± 3.2 | 82.8 ± 3.2 | 82.41 ± 3.2 | 82.22 ± 3.2 | 82.29 ± 3.2
m1 = 0.5586 | 85.48 ± 3.3 | 85.2 ± 3.3 | 84.75 ± 3.3 | 84.26 ± 3.3 | 83.82 ± 3.2 | 83.04 ± 3.2 | 82.64 ± 3.2 | 82.43 ± 3.2 | 82.51 ± 3.2
m1 = 0.5849 | 85.92 ± 3.3 | 85.58 ± 3.3 | 85.09 ± 3.3 | 84.59 ± 3.3 | 84.14 ± 3.3 | 83.34 ± 3.2 | 82.92 ± 3.2 | 82.72 ± 3.2 | 82.8 ± 3.2
m1 = 0.6026 | 86.2 ± 3.3 | 85.82 ± 3.3 | 85.31 ± 3.3 | 84.76 ± 3.3 | 84.33 ± 3.3 | 83.52 ± 3.2 | 83.11 ± 3.2 | 82.91 ± 3.2 | 83 ± 3.2
m1 = 0.6299 | 86.63 ± 3.4 | 86.13 ± 3.3 | 85.61 ± 3.3 | 85.06 ± 3.3 | 84.6 ± 3.3 | 83.81 ± 3.2 | 83.39 ± 3.2 | 83.19 ± 3.2 | 83.28 ± 3.2
m1 = 0.668 | 87.17 ± 3.4 | 86.57 ± 3.4 | 86.02 ± 3.3 | 85.47 ± 3.3 | 85 ± 3.3 | 84.22 ± 3.3 | 83.79 ± 3.2 | 83.6 ± 3.2 | 83.67 ± 3.2
m1 = 0.7037 | 87.62 ± 3.4 | 86.92 ± 3.4 | 86.38 ± 3.3 | 85.83 ± 3.3 | 85.34 ± 3.3 | 84.59 ± 3.3 | 84.15 ± 3.3 | 83.97 ± 3.3 | 84.02 ± 3.3
m1 = 0.731 | 87.93 ± 3.4 | 87.19 ± 3.4 | 86.64 ± 3.4 | 86.08 ± 3.3 | 85.59 ± 3.3 | 84.86 ± 3.3 | 84.42 ± 3.3 | 84.23 ± 3.3 | 84.3 ± 3.3
m1 = 0.7714 | 88.33 ± 3.4 | 87.59 ± 3.4 | 87 ± 3.4 | 86.43 ± 3.3 | 85.97 ± 3.3 | 85.25 ± 3.3 | 84.81 ± 3.3 | 84.65 ± 3.3 | 84.71 ± 3.3
m1 = 0.8141 | 88.74 ± 3.4 | 88.03 ± 3.4 | 87.41 ± 3.4 | 86.86 ± 3.4 | 86.39 ± 3.3 | 85.68 ± 3.3 | 85.26 ± 3.3 | 85.09 ± 3.3 | 85.14 ± 3.3
m1 = 0.8293 | 88.85 ± 3.4 | 88.14 ± 3.4 | 87.53 ± 3.4 | 86.96 ± 3.4 | 86.5 ± 3.4 | 85.79 ± 3.3 | 85.38 ± 3.3 | 85.24 ± 3.3 | 85.28 ± 3.3
m1 = 0.8679 | 89.21 ± 3.5 | 88.51 ± 3.4 | 87.87 ± 3.4 | 87.32 ± 3.4 | 86.88 ± 3.4 | 86.14 ± 3.3 | 85.78 ± 3.3 | 85.64 ± 3.3 | 85.68 ± 3.3
m1 = 0.9125 | 89.61 ± 3.5 | 88.91 ± 3.4 | 88.26 ± 3.4 | 87.74 ± 3.4 | 87.28 ± 3.4 | 86.56 ± 3.4 | 86.22 ± 3.3 | 86.09 ± 3.3 | 86.13 ± 3.3
m1 = 0.9573 | 90.05 ± 3.5 | 89.36 ± 3.5 | 88.69 ± 3.4 | 88.18 ± 3.4 | 87.71 ± 3.4 | 87 ± 3.4 | 86.71 ± 3.4 | 86.56 ± 3.4 | 86.62 ± 3.4
